pIC50: −log10 of the molar value.
What was measured:
[1] = tested on: MDA-MB-231 cells with wild-type BRCA; assay: Anti-proliferation study on MDA-MB-231 cells (CellTiter-Glo); type: cell-based; conditions: Homo sapiens, MDA-MB-231, 72 h; 3 days incubation
Description: Materials: test compounds; R DMEM medium; fetal bovine serum; penicillin/streptomycin antibiotic; MDA-MB-231 cells; Envision Multimode Plate Reader.
MDA-MB-231 cells were seeded in a white 96-well plate by adding 80 μL of cell suspension (containing 5000 MDA-MB-231 cells) to each well. The cell plate was incubated in a CO2 incubator overnight.
Eight concentrations were set for each compound. The test compounds were serially 3-fold diluted to the 8th concentration with a multichannel pipette, i.e., from 2 mM to 920 nM, in duplicate. 78 μL of medium was added to an intermediate plate, and the serially diluted compound was transferred to the intermediate plate at 2 μL per well. After being mixed well, the mixture was transferred to the cell plate at 20 μL per well. […] Another cell plate was provided for reading signal values on the day of compound addition and these signal values were used as Max values in data analysis. Promega CellTiter-Glo was added to the cell plate at 25 μL per well and the luminescence signals were stabilized by incubation for 10 min at room temperature. Readings were taken using a PerkinElmer Envision Multimode Plate Reader.
Promega CellTiter-Glo was added to the cell plate at 25 μL per well and the luminescence signals were stabilized by incubation for 10 min at room temperature. Readings were taken using a PerkinElmer Envision Multimode Plate Reader. […]

CYP1A2 = CYP1A2 (Homo sapiens (Human), UniProt P05177); assay: Inhibition against cytochrome P450 isoenzymes, CYP1A2; type: in vitro ADME; conditions: human liver microsomes
Description: (§1) The inhibition of the test compound against different subtypes of the human cytochrome P450 isoenzyme was determined. The test compound, a standard inhibitor (100×final concentration) and a mixed substrate working solution were prepared; the microsomes frozen in a refrigerator at −80° C. were taken out and thawed. […]

CYP2C19 = CYP2C19 (Homo sapiens (Human), UniProt P33261); assay: Inhibition against cytochrome P450 isoenzymes, CYP2C19; type: in vitro ADME; conditions: human liver microsomes
Description: as §1

Chain of CYP2C19 (P33261 whole entry): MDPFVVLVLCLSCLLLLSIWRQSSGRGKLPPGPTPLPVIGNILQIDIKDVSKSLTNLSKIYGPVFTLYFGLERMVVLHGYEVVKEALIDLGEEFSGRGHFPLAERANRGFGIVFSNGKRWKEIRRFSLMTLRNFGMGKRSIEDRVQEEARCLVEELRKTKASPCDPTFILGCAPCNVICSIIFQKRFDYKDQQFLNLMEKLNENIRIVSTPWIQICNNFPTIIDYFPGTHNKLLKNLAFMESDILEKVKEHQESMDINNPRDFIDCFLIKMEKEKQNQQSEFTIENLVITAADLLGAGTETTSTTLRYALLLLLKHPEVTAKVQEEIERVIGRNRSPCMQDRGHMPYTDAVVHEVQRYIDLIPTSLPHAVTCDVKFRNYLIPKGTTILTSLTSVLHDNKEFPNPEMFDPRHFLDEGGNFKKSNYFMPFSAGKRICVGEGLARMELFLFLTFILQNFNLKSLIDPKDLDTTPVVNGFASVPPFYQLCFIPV
Chain of CYP1A2 (P05177 whole entry): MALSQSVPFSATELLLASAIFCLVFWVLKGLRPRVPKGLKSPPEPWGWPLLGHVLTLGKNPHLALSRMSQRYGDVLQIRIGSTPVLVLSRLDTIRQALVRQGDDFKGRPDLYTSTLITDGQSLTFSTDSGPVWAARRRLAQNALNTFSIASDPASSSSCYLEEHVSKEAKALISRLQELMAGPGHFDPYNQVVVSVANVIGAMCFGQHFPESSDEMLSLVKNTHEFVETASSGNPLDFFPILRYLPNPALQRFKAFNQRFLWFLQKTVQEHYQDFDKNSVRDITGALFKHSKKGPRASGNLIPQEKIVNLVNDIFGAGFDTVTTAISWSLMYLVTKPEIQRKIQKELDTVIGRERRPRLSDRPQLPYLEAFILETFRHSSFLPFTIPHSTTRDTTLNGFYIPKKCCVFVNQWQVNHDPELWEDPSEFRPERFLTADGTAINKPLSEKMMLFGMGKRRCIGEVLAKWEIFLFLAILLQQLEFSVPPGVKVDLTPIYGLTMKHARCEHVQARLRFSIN

**Q.** With `C[C@]1(c2ccc(-c3[nH]c4cc(F)cc5c4c3CONC5=O)cc2)CCCN1` [Compound 1] as the compound, how does the pIC50 [1] read?
**A.** < 5.00

**Q.** And the IC50 (CYP1A2)?
**A.** > 50 µM

**Q.** What about the IC50 (CYP2C19) of the same compound?
**A.** 8.33 µM
